Assay results: ChEMBL document CHEMBL1201862, “PubChem BioAssay data set” (2004)
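1) Cells in 96-well plates. 2) Compound, 48 h, 5 concentrations. 3) Linear interpolation between surrounding doses. 4) Unreached endpoint = highest concentration. GI50 = concentration required for 50% inhibition of growth.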 Active and inactive are the calls of the source. Cut-off read from the data, not from the text of the source: active = GI50 up to about 1.1 µM and inactive = higher. Residues, ends and D or L forms follow the SMILES beside them.

How the values were obtained:
Test in all cases: growth of human tumour cells (NCI), 48 h
HCT-15 = test system: HCT-15
RXF 393 = test system: RXF 393
HOP-92 = test system: HOP-92
CAKI-1 = test system: CAKI-1
SK-MEL-5 = test system: SK-MEL-5
NCI-H522 = test system: NCI-H522
SNB-19 = test system: SNB-19
MDA-MB-435 = test system: MDA-MB-435
UACC-62 = test system: UACC-62
HT-29 = test system: HT-29
MDA-MB-231 = test system: MDA-MB-231
SF-539 = test system: SF-539
SF-268 = test system: SF-268
CCRF-CEM = test system: CCRF-CEM
HCT-116 = test system: HCT-116
SK-OV-3 = test system: SK-OV-3
UO-31 = test system: UO-31
RPMI-8226 = test system: RPMI-8226

Row | Structure (SMILES) | GI50 (HCT-15) | GI50 (RXF 393) | GI50 (HOP-92) | GI50 (CAKI-1) | GI50 (SK-MEL-5) | GI50 (NCI-H522) | GI50 (SNB-19) | GI50 (MDA-MB-435) | GI50 (UACC-62) | GI50 (HT-29) | GI50 (MDA-MB-231) | GI50 (SF-539) | GI50 (SF-268) | GI50 (CCRF-CEM) | GI50 (HCT-116) | GI50 (SK-OV-3) | GI50 (UO-31) | GI50 (RPMI-8226)
1 | CC(=O)OCC1OC(n2c(-c3ccccc3)c(C(C)=O)c(-c3ccc(Cl)cc3)c(C#N)c2=S)C(OC(C)=O)C(OC(C)=O)C1OC(C)=O (stereo unspecified) | 11.6 µM | 65.5 µM (inactive) | 0.601 µM (active) | 99.8 µM (inactive) | 21.2 µM (inactive) | > 100 µM (inactive) | > 100 µM (inactive) | > 100 µM (inactive) | > 100 µM (inactive) | > 100 µM (inactive) | 70.3 µM (inactive) | > 100 µM (inactive) | 50.4 µM (inactive) | 29.9 µM (inactive) | 83.2 µM (inactive) | > 100 µM (inactive) | – | –
2 | CCOC(=O)CCC(NC(=O)c1ccc(CNc2nc3cc(N)cc(N)c3nc2-c2ccccc2)cc1)C(=O)OCC (stereo unspecified) | > 69.5 µM | > 58.9 µM (inactive) | 39.9 µM (inactive) | > 100 µM (inactive) | > 83 µM (inactive) | 28.4 µM (inactive) | > 100 µM (inactive) | 43.1 µM (inactive) | > 86.3 µM (inactive) | > 100 µM (inactive) | 22.3 µM (inactive) | > 100 µM (inactive) | > 100 µM (inactive) | – | > 95.9 µM (inactive) | > 100 µM (inactive) | > 100 µM (inactive) | –
3 | Cc1nc2ccc(S(=O)(=O)Nc3ccccc3Cl)cc2c(=O)n1NC(=O)CNc1ccccc1Cl | > 100 µM | – | > 100 µM (inactive) | > 100 µM (inactive) | – | > 100 µM (inactive) | > 100 µM (inactive) | > 100 µM (inactive) | > 100 µM (inactive) | > 100 µM (inactive) | > 100 µM (inactive) | > 100 µM (inactive) | > 100 µM (inactive) | > 100 µM (inactive) | > 100 µM (inactive) | > 100 µM (inactive) | > 100 µM (inactive) | > 100 µM (inactive)
4 | O=C1CNNC(CSc2nc3ccc(I)cc3c(=O)n2Cc2ccccc2)=N1 | 32 µM | – | 22.7 µM (inactive) | 15 µM (inactive) | 15.7 µM (inactive) | 23 µM (inactive) | 53.5 µM (inactive) | 32.6 µM (inactive) | 15.8 µM (inactive) | 33.7 µM (inactive) | 14.5 µM (inactive) | 22.5 µM (inactive) | 24.7 µM (inactive) | 15.4 µM (inactive) | 20.8 µM (inactive) | 33.3 µM (inactive) | 1.24 µM (inactive) | 22.6 µM (inactive)
5 | COc1cc(OC)c(OC)cc1/C=C/c1nc2ccccc2s1 | > 100 µM | 23.3 µM (inactive) | 6.35 µM (inactive) | – | > 100 µM (inactive) | 40.6 µM (inactive) | > 100 µM (inactive) | 3.1 µM (inactive) | – | 38.7 µM (inactive) | > 100 µM (inactive) | > 100 µM (inactive) | > 100 µM (inactive) | > 100 µM (inactive) | 25.2 µM (inactive) | > 100 µM (inactive) | 47.2 µM (inactive) | 31 µM (inactive)
6 | COC(=O)C(Cc1ccccc1)NP(=O)(O)OCC1OC(n2ccc(N)nc2=O)C(O)C1O (stereo unspecified) | > 100 µM | – | > 100 µM (inactive) | > 100 µM (inactive) | > 100 µM (inactive) | > 100 µM (inactive) | > 100 µM (inactive) | > 100 µM (inactive) | > 100 µM (inactive) | > 100 µM (inactive) | > 100 µM (inactive) | > 100 µM (inactive) | > 100 µM (inactive) | 50.9 µM (inactive) | > 100 µM (inactive) | > 100 µM (inactive) | > 100 µM (inactive) | > 100 µM (inactive)
7 | C=C1C(=O)OC2CC3(C)CCCC(C)C3=CC12 (stereo unspecified) | 2.1 µM | – | 2.64 µM (inactive) | 3.09 µM (inactive) | 1.55 µM (inactive) | 1.51 µM (inactive) | 13.1 µM (inactive) | 2.94 µM (inactive) | 4.08 µM (inactive) | 3.3 µM (inactive) | 12.1 µM (inactive) | 1.35 µM (inactive) | 6.92 µM (inactive) | 1.21 µM (inactive) | 3.91 µM (inactive) | 20.7 µM (inactive) | 3.18 µM (inactive) | –
8 | CCC(C)C(NC(=O)C1CCCN1)C(=O)NC(C(=O)NCC(=O)NC(CC(N)=O)C(=O)NC(CC(C)C)C(=O)NC(CC(C)C)C(=O)NC(CCCCN)C(N)=O)C(C)C (stereo unspecified) (H-PIVGNLLK-NH2; configuration not given here) | > 75 µM | – | > 75 µM (inactive) | > 75 µM (inactive) | > 75 µM (inactive) | > 75 µM (inactive) | > 75 µM (inactive) | > 75 µM (inactive) | > 75 µM (inactive) | > 75 µM (inactive) | > 75 µM (inactive) | > 75 µM (inactive) | > 75 µM (inactive) | > 75 µM (inactive) | > 75 µM (inactive) | > 75 µM (inactive) | > 75 µM (inactive) | > 75 µM (inactive)
